Experimental data published in the supplement of paper PMC11061612.

Tests used:
Assay in all cases: combination Emax (second highest fraction inhibited in the dose matrix, 72 h); higher = more inhibition; extreme values may be limits of the assay
[1] = tested on: 22RV1 (Prostate Carcinoma)
Procedure, shortened: (§1)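 After 24 hours at 37°C and 5% CO2 in 1536-well plates, cells in DMEM/F12 or RPMI plus 10% FBS received two-drug dose matrices for 72 hours. Viability came from CellTiter-Glo 2.0 luminescence and was scaled as inhibition, anchored at 0 by vehicle wells and at 1 by blank wells. Combination Emax is taken as the second-highest inhibition in the matrix, and Bliss excess as the observed combination effect less EA + EB − EA·EB, with EA and EB the single-agent effects.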

[2] = tested on: 769-P (Kidney Carcinoma)
Procedure, shortened: as §1

[3] = tested on: A2780 (Ovarian Carcinoma)
Procedure, shortened: as §1

[4] = tested on: CGTH-W-1 (Thyroid Gland Carcinoma)
Procedure, shortened: as §1

[5] = tested on: EB2 (Burkitt's Lymphoma)
Procedure, shortened: as §1

[6] = tested on: EW-7 (Ewing's Sarcoma)
Procedure, shortened: as §1

[7] = tested on: HCC1395 (Breast Carcinoma)
Procedure, shortened: as §1

[8] = tested on: HCC70 (Breast Carcinoma)
Procedure, shortened: as §1

[9] = tested on: IM-9 (Non-Cancerous)
Procedure, shortened: as §1

[10] = tested on: JHH-2 (Hepatocellular Carcinoma)
Procedure, shortened: as §1

[11] = tested on: JHU-022 (Oral Cavity Carcinoma)
Procedure, shortened: as §1

[12] = tested on: KYSE-220 (Esophageal Squamous Cell Carcinoma)
Procedure, shortened: as §1

[13] = tested on: LU-165 (Small Cell Lung Carcinoma)
Procedure, shortened: as §1

[14] = tested on: MDA-MB-436 (Breast Carcinoma)
Procedure, shortened: as §1

[15] = tested on: MHH-ES-1 (Ewing's Sarcoma)
Procedure, shortened: as §1

[16] = tested on: NCI-H1651 (Lung Adenocarcinoma)
Procedure, shortened: as §1

[17] = tested on: NCI-H2087 (Lung Adenocarcinoma)
Procedure, shortened: as §1

[18] = tested on: SK-HEP-1 (Hepatocellular Carcinoma)
Procedure, shortened: as §1

[19] = tested on: SW620 (Colorectal Carcinoma)
Procedure, shortened: as §1

[20] = tested on: WM1552C (Melanoma)
Procedure, shortened: as §1

Row | Compound | combination Emax [1] | combination Emax [2] | combination Emax [3] | combination Emax [4] | combination Emax [5] | combination Emax [6] | combination Emax [7] | combination Emax [8] | combination Emax [9] | combination Emax [10] | combination Emax [11] | combination Emax [12] | combination Emax [13] | combination Emax [14] | combination Emax [15] | combination Emax [16] | combination Emax [17] | combination Emax [18] | combination Emax [19] | combination Emax [20]
1 | C[C@@H](c1ccc2nccn2c1)n1nnc2ncc(-c3cnn(C)c3)nc21 [Savolitinib] + Cc1c2c(nn1C)CSCc1cc(n(C)n1)CSc1cc(c3ccccc3c1)OCCCc1c(C(=O)O)n(C)c3c-2c(Cl)ccc13 [AZD5991] (first compound max 1 µM, 7x7, partner max 1 µM) | 0.34 | 0.158 | 0.499 | 0.173 | 0.208 | 0.133 | 0.478 | 0.844 | 0.573 | 0.142 | 0.132 | 0.164 | 0.213 | 0.18 | 0.38 | 0.183 | 0.204 | 0.237 | 0.167 | 0.554
2 | Cc1cc2ncnn2cc1Nc1ncc2c(n1)n(C1CCOCC1)c(=O)n2C [AZD7648] + C=CCn1c(=O)c2cnc(Nc3ccc(N4CCN(C)CC4)cc3)nc2n1-c1cccc(C(C)(C)O)n1 [AZD1775] (first compound max 10 µM, partner max 1 µM) | 0.46 | 0.829 | 0.827 | 0.265 | 0.819 | 0.898 | 0.594 | 0.559 | 0.996 | 0.7 | 0.497 | 0.882 | 0.419 | 0.362 | 0.686 | 0.631 | 0.353 | 0.513 | 0.526 | 0.551
3 | CN(CCO)CC[C@H](CSc1ccccc1)Nc1ccc(S(=O)(=O)NC(=O)c2ccc(N3CCC([C@@H](O)c4ccccc4-c4ccc(Cl)cc4)CC3)cc2)cc1S(=O)(=O)C(F)(F)F [AZD4320] + C[C@@H](Nc1cc(F)cc(F)c1)c1cc(C(=O)N(C)C)cc2c(=O)cc(N3CCOCC3)oc12 [AZD8186] (first compound max 1 µM, 7x7, partner max 3 µM) | 0.456 | 0.341 | 0.543 | 0.476 | 0.536 | 0.947 | 0.476 | 0.781 | 0.972 | 0.77 | 0.446 | 0.35 | 0.717 | 0.459 | 0.946 | 0.411 | 0.773 | 0.778 | 0.84 | 0.424
4 | CN(CCO)CC[C@H](CSc1ccccc1)Nc1ccc(S(=O)(=O)NC(=O)c2ccc(N3CCC([C@@H](O)c4ccccc4-c4ccc(Cl)cc4)CC3)cc2)cc1S(=O)(=O)C(F)(F)F [AZD4320] + Nc1ccn([C@@H]2O[C@H](CO)[C@@H](O)C2(F)F)c(=O)n1 [Gemcitabine] (first compound max 1 µM, 7x7, partner max 0.3 µM) | 0.748 | 0.903 | 0.893 | 0.887 | 0.932 | 1 | 0.211 | 0.507 | 1 | 0.525 | 0.787 | 0.674 | 0.828 | 0.531 | 0.964 | 0.543 | 0.881 | 0.936 | 0.871 | 0.817
5 | Cc1cc2ncnn2cc1Nc1ncc2c(n1)n(C1CCOCC1)c(=O)n2C [AZD7648] + CCN(CCO)CCCOc1ccc2c(Nc3cc(CC(=O)Nc4cccc(F)c4)[nH]n3)ncnc2c1 [AZD2811] (first compound max 10 µM, 7x7, partner max 1 µM) | 0.396 | 0.416 | 0.686 | 0.338 | 0.473 | 0.596 | 0.363 | 0.629 | 0.943 | 0.446 | 0.4 | 0.331 | 0.288 | 0.321 | 0.54 | 0.264 | 0.215 | 0.395 | 0.248 | 0.43
6 | N#Cc1cnc(Nc2cc(NC[C@H]3CNCCO3)c(C(F)(F)F)cn2)cn1 [SRA737] + Nc1ccn([C@@H]2O[C@H](CO)[C@@H](O)C2(F)F)c(=O)n1 [Gemcitabine] (first compound max 10 µM, 7x7, partner max 0.3 µM) | 0.734 | 0.851 | 0.92 | 0.846 | 0.945 | 1 | 0.725 | 0.823 | 1 | 0.708 | 0.685 | 0.78 | 0.544 | 0.579 | 0.986 | 0.735 | 0.585 | 0.724 | 0.889 | 0.796
7 | Cc1nc(Nc2ncc(C(=O)Nc3c(C)cccc3Cl)s2)cc(N2CCN(CCO)CC2)n1 [Dasatinib] + CC(=O)Nc1cccc(-n2c(=O)n(C3CC3)c(=O)c3c(Nc4ccc(I)cc4F)n(C)c(=O)c(C)c32)c1 [Trametinib] (first compound max 2 µM, 7x7, partner max 1 µM) | 0.361 | 0.814 | 0.841 | 0.982 | 0.531 | 0.213 | 0.527 | 0.288 | 0.876 | 0.973 | 0.681 | 0.555 | 0.144 | 0.342 | 0.135 | 0.136 | 0.573 | 0.325 | 0.694 | 0.764
8 | CN(CCO)CC[C@H](CSc1ccccc1)Nc1ccc(S(=O)(=O)NC(=O)c2ccc(N3CCC([C@@H](O)c4ccccc4-c4ccc(Cl)cc4)CC3)cc2)cc1S(=O)(=O)C(F)(F)F [AZD4320] + C=CCn1c(=O)c2cnc(Nc3ccc(N4CCN(C)CC4)cc3)nc2n1-c1cccc(C(C)(C)O)n1 [AZD1775] (first compound max 1 µM, partner max 1 µM) | 0.321 | 0.962 | 0.666 | 0.106 | 0.866 | 1 | 0.69 | 0.607 | 1 | 0.604 | 0.579 | 0.795 | 0.681 | 0.196 | 0.947 | 0.746 | 0.68 | 0.327 | 0.931 | 0.471
9 | COc1cc2c(cc1OCCCCCOc1cc3c(cc1OC)C(=O)N1C=C(C)C[C@H]1C=N3)N=C[C@@H]1CC(C)=CN1C2=O [SG3199] + O=C(c1cc(Cc2n[nH]c(=O)c3ccccc23)ccc1F)N1CCN(C(=O)C2CC2)CC1 [Olaparib] (first compound max 0.001 µM, 7x7, partner max 10 µM) | 0.095 | 0.174 | 0.422 | 0.168 | 0.278 | 0.303 | 0.181 | 0.129 | 0.38 | 0.192 | 0.0543 | 0.119 | 0.0933 | 0.121 | 0.703 | 0.274 | 0.106 | 0.21 | 0.144 | 0.178
10 | Cc1cc2ncnn2cc1Nc1ncc2c(n1)n(C1CCOCC1)c(=O)n2C [AZD7648] + CN(C)CCCOc1ccc(-c2ccc3ncc4c(c3c2)n(C2CCOCC2)c(=O)n4C)cn1 [AZD0156] (first compound max 10 µM, 7x7, partner max 1 µM) | 0.468 | 0.264 | 0.609 | 0.228 | 0.484 | 0.682 | 0.366 | 0.3 | 0.456 | 0.491 | 0.3 | 0.27 | 0.346 | 0.289 | 0.269 | 0.194 | 0.146 | 0.23 | 0.229 | 0.29
11 | N#Cc1cnc(Nc2cc(NC[C@H]3CNCCO3)c(C(F)(F)F)cn2)cn1 [SRA737] + CCc1c2c(nc3ccc(O)cc13)-c1cc3c(c(=O)n1C2)COC(=O)[C@]3(O)CC [SN-38] (first compound max 10 µM, 7x7, partner max 0.3 µM) | 0.685 | 0.9 | 0.85 | 0.701 | 0.929 | 0.976 | 0.766 | 0.674 | 1 | 0.724 | 0.759 | 0.905 | 0.647 | 0.549 | 0.975 | 0.835 | 0.918 | 0.802 | 0.955 | 0.638
12 | CN(CCO)CC[C@H](CSc1ccccc1)Nc1ccc(S(=O)(=O)NC(=O)c2ccc(N3CCC([C@@H](O)c4ccccc4-c4ccc(Cl)cc4)CC3)cc2)cc1S(=O)(=O)C(F)(F)F [AZD4320] + Cc1cc2ncnn2cc1Nc1ncc2c(n1)n(C1CCOCC1)c(=O)n2C [AZD7648] (first compound max 1 µM, 7x7, partner max 10 µM) | 0.426 | 0.574 | 0.51 | 0.163 | 0.431 | 0.966 | 0.263 | 0.356 | 0.696 | 0.448 | 0.182 | 0.11 | 0.516 | 0.177 | 0.497 | 0.16 | 0.286 | 0.162 | 0.233 | 0.143
